Test results taken from patent US8415469B2, “Compounds and methods for kinase modulation, and indications therefor” (Plexxikon Inc., priority 2005, dated 2013).
pIC50: −log10 of the molar value.

How the values were obtained:
Format in all cases: biochemical
Jak3 = biological target: T1, Jak3 (Homo sapiens, UniProt P52333); assay: AlphaScreen kinase assay, Jak3; settings: read-out: IC50, activity toward kinase Jak3
T1 sequence (P52333 1-1124): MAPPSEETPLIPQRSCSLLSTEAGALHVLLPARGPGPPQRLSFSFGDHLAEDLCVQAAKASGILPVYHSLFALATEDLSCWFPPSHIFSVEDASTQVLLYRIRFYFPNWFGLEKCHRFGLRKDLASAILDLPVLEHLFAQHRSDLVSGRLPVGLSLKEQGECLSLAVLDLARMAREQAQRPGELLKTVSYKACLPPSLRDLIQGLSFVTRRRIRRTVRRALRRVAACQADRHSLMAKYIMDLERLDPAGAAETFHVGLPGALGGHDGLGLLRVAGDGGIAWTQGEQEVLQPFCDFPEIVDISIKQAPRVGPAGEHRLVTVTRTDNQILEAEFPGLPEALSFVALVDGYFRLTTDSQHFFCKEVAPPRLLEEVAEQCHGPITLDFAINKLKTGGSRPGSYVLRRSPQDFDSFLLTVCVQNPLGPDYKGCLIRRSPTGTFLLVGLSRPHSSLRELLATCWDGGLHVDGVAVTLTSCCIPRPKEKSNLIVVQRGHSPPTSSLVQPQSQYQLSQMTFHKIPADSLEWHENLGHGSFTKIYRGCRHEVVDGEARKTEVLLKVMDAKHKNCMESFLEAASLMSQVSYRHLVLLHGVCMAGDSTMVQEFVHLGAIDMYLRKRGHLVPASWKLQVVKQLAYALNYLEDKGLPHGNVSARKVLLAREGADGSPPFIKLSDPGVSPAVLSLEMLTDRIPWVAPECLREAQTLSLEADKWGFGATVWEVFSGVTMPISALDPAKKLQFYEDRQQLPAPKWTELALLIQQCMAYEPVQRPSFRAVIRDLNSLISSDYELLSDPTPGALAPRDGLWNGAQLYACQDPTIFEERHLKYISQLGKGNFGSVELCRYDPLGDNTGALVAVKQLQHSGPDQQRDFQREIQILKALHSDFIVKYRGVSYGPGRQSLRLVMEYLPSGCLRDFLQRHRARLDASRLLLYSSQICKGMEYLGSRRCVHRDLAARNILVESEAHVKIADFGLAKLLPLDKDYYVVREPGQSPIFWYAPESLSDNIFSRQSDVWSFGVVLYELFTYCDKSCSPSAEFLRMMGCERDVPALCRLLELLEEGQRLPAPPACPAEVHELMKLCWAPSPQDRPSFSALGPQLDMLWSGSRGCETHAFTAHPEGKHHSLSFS
How it was run: (§1)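 Biotinylated peptide substrate is phosphorylated by kinase; anti-phosphopeptide antibody on acceptor beads and streptavidin donor beads bring emission when substrate is phosphorylated. Inhibition lowers acceptor signal. Compounds from 20 mM DMSO stock tested as 8-point 1:3 serial dilutions.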

Jnk1 = biological target: T2, Jnk1 (Homo sapiens, UniProt P45983); assay: AlphaScreen kinase assay, Jnk1; settings: read-out: IC50, activity toward kinase Jnk1
T2 construct: purchased Upstate Biotechnology

Abl = biological target: T3, Abl (Homo sapiens, UniProt P00519); assay: AlphaScreen kinase assay, Abl; settings: read-out: activity toward kinase Abl, IC50
T3 construct: P1121. pET-SPEC BI-PTP Abl G227-V515-X; His6 (N); made in house; host or cells: E. coli (PTP1B co-expressed)
T3 sequence (P00519 with tags, fused parts or gaps): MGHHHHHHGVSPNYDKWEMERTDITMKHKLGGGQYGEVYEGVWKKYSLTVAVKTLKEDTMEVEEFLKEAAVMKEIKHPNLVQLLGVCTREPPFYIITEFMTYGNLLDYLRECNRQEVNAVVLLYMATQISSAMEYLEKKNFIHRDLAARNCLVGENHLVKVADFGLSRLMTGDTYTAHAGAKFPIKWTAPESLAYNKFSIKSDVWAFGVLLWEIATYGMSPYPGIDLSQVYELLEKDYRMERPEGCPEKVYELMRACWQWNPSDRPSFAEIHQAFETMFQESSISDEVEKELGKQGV
How it was run: as §1

Met = biological target: T4, Met (Homo sapiens, UniProt P08581); assay: AlphaScreen kinase assay, Met; settings: read-out: IC50, activity toward kinase Met
T4 construct: P1818.pETN6 BI-PTP MET G1056-G1364-X WT; His6 (N); made in house; host or cells: E. coli (PTP1B co-expressed)
How it was run: as §1

Jnk3 = biological target: T5, Jnk3 (Homo sapiens, UniProt P53779); assay: AlphaScreen kinase assay, Jnk3; settings: read-out: IC50, activity toward kinase Jnk3
T5 construct: purchased Upstate Biotechnology

Flt1 = biological target: T6, Flt1 (Homo sapiens, UniProt P17948); assay: AlphaScreen kinase assay, Flt1; settings: read-out: IC50, activity toward kinase Flt1
T6 construct: P1826.pETN6 BI-PTP FLT1 M799-D1165-X WT; His6 (N); made in house; host or cells: E. coli (PTP1B co-expressed)
T6 sequence (P17948 with tags, fused parts or gaps): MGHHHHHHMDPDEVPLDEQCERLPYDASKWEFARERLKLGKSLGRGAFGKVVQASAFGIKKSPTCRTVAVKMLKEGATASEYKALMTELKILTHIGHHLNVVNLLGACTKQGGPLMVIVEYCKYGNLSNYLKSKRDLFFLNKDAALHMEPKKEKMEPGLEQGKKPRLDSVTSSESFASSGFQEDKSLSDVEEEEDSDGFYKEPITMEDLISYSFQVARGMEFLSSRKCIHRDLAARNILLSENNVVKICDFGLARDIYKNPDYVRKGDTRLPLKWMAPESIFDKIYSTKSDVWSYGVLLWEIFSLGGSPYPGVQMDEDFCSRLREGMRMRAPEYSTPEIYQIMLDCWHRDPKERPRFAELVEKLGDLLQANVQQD

c-Raf-1 = biological target: T7, c-Raf-1 (Homo sapiens, UniProt P04049); assay: AlphaScreen kinase assay, c-Raf-1; settings: read-out: IC50, activity toward kinase c-Raf-1
T7 construct: purchased Upstate Biotechnology

Measured: pIC50

T5 sequence (P53779 whole entry): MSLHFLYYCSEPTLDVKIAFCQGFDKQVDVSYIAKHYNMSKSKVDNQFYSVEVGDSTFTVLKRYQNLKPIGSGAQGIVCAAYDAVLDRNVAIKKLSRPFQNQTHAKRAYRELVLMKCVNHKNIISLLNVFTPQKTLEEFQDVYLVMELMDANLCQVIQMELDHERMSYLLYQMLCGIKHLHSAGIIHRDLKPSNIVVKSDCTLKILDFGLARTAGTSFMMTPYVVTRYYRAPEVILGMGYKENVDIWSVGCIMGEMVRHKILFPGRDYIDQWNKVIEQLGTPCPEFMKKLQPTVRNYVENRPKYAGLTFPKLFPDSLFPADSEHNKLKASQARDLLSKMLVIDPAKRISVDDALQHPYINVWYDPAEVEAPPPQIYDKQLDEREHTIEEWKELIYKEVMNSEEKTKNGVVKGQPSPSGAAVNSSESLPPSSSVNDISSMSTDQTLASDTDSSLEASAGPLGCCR
T2 sequence (P45983 whole entry): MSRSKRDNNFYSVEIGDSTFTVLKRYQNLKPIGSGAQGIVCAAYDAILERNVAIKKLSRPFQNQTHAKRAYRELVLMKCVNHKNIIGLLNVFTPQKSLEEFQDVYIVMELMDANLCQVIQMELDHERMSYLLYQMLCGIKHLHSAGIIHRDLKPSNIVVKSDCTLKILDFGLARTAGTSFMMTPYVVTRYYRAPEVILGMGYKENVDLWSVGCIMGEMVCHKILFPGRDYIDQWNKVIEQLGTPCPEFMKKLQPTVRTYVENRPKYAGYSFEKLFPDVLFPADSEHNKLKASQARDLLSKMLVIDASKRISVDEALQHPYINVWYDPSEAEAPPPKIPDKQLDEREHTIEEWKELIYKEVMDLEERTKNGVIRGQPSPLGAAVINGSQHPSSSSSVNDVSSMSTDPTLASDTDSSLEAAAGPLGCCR
T4 sequence (P08581 with tags, fused parts or gaps): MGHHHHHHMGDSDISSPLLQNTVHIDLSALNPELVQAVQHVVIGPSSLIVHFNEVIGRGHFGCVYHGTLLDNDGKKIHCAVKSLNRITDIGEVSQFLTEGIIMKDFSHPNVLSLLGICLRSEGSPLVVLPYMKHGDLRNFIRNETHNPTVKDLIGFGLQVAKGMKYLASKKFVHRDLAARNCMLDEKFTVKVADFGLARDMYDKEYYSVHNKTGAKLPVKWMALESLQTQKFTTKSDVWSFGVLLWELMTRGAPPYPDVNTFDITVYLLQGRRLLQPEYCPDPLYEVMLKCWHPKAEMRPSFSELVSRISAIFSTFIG
T7 sequence (P04049 whole entry): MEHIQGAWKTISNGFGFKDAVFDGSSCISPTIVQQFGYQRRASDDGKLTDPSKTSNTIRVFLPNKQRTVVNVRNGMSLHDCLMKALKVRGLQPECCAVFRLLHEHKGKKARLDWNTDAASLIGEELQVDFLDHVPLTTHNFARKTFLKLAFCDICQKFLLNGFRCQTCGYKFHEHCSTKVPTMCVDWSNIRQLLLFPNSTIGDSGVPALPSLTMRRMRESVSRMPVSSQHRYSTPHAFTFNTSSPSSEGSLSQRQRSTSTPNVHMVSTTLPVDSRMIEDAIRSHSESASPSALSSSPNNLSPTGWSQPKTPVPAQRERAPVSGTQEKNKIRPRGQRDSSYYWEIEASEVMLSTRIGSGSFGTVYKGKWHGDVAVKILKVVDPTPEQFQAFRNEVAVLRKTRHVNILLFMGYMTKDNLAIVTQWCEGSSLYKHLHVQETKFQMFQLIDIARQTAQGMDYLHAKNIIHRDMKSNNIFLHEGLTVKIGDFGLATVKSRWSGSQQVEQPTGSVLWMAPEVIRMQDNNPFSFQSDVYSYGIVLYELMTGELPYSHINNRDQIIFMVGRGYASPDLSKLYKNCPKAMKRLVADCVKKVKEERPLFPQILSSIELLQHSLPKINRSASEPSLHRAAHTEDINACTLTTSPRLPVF

CS(=O)(=O)Nc1cccc(-c2ccnc3[nH]cc(C(=O)c4cc(F)ccc4F)c23)c1 [Compound P-0060]
≥ 5.00: Jak3

Cc1ccccc1C(=O)c1c[nH]c2nccc(-c3cccc(NS(C)(=O)=O)c3)c12 [Compound P-0109]
≥ 5.00: Jak3

Nc1cccc(-c2ccnc3[nH]cc(C(=O)c4ccccc4F)c23)c1 [Compound P-0022]
≥ 5.00: Jak3

OCCOc1ccc(F)c(Cc2c[nH]c3ncc(-c4cccnc4)cc23)c1F [Compound P-1394, 2-[2,4-Difluoro-3-(5-pyridin-3-yl-1H-pyrrolo[2,3-b]pyridin-3-ylmethyl)-phenoxy]-ethanol]
≥ 5.00: Jnk1 | Abl | Met | Jnk3

Nc1cccc(-c2cnc3[nH]cc(C(=O)c4cc(O)ccc4F)c3c2)c1 [Compound P-0002]
not listed: Jak3
≥ 5.00: all other assays above

CC(=O)Nc1cccc(-c2ccnc3[nH]cc(C(=O)c4ccccc4F)c23)c1 [Compound P-0070]
≥ 5.00: Jak3

O=C(c1cccc(O)c1F)c1c[nH]c2ncc(-c3cccnc3)cc12 [Compound P-0027, (2-Fluoro-3-hydroxy-phenyl)-(5-pyridin-3-yl-1H-pyrrolo[2,3-b]pyridin-3-yl)-methanone]
not listed: Jak3 | Abl
≥ 5.00: all other assays above

Cc1c(O)cccc1C(=O)c1c[nH]c2ncc(-c3cccs3)cc12 [Compound P-0114, (3-Hydroxy-2-methyl-phenyl)-(5-thiophen-2-yl-1H-pyrrolo[2,3b]pyridin-3-yl)-methanone]
not listed: Jak3 | Abl
≥ 5.00: all other assays above

Oc1cccc(Cc2c[nH]c3ncc(-c4cccs4)cc23)c1F [Compound P-0052, 2-Fluoro-3-(5-thiophen-2-yl-1H-pyrrolo[2,3-b]pyridin-3-ylmethyl)-phenol]
≥ 5.00: Jnk1 | c-Raf-1 | Met | Jnk3

Cc1c(O)cccc1C(=O)c1c[nH]c2ncc(-c3cccnc3)cc12 [Compound P-0006, (3-Hydroxy-2-methyl-phenyl)-(5-pyridin-3-yl-1H-pyrrolo[2,3b]pyridin-3-yl)-methanone]
≥ 5.00: Jnk1 | c-Raf-1 | Met | Jnk3

Nc1cccc(-c2ccnc3[nH]cc(C(=O)c4cc(F)ccc4F)c23)c1 [Compound P-0046]
≥ 5.00: Jak3

Cc1c(O)cccc1C(=O)c1c[nH]c2ncc(-c3ccccc3)cc12 [Compound P-0016, (3-Hydroxy-2-methyl-phenyl)-(5-phenyl-1H-pyrrolo[2,3b]pyridin-3-yl)-methanone]
not listed: Jak3 | Abl
≥ 5.00: all other assays above

Fc1cc(F)cc(-c2ccnc3[nH]cc(Sc4ccccn4)c23)c1 [Compound P-0106]
≥ 5.00: Jak3

CS(=O)(=O)c1cccc(-c2ccnc3[nH]cc(C(=O)c4cc(F)ccc4F)c23)c1 [Compound P-0171]
≥ 5.00: Jak3

Oc1ccc(F)c(Cc2c[nH]c3ncc(-c4cccnc4)cc23)c1F [Compound P-0078, 2,4-difluoro-3-(5-pyridin-3-yl-1H-pyrrolo[2,3-b]pyridin-3-ylmethyl)-phenol]
not listed: Jak3 | Abl
≥ 5.00: all other assays above

Cc1ccc(S(=O)(=O)NCc2c[nH]c3ncccc23)cc1 [Compound P-0058]
≥ 5.00: Abl | Met | Jnk3

Cc1ccc(F)cc1C(=O)c1c[nH]c2nccc(-c3cccc(NS(C)(=O)=O)c3)c12 [Compound P-0124]
≥ 5.00: Jak3

Cc1ccccc1C(=O)c1c[nH]c2nccc(-c3cccc(N)c3)c12 [Compound P-0044]
≥ 5.00: Jak3

CS(=O)(=O)c1cccc(-c2cnc3[nH]cc(C(=O)c4cc(O)ccc4F)c3c2)c1 [Compound P-0008, (2-Fluoro-5-hydroxy-phenyl)-[5-(3-methanesulfonyl-phenyl)-1H-pyrrolo[2,3-b]pyridin-3-yl]-methanone]
not listed: Jak3 | Abl
≥ 5.00: all other assays above

CC(=O)Nc1cccc(-c2cnc3[nH]cc(C(=O)c4cccc(O)c4F)c3c2)c1 [Compound P-0035, N-{3-[3-(2-Fluoro-3-hydroxy-benzoyl)-1H-pyrrolo[2,3-b]pyridin-5-yl]-phenyl}-acetamide]
≥ 5.00: Jnk1 | c-Raf-1 | Met | Jnk3

Cn1cc(C(F)(F)F)c(-c2ccc(S(=O)(=O)NCc3c[nH]c4ncccc34)s2)n1 [Compound P-0041]
≥ 5.00: Flt1 | Abl | Met | Jnk3

O=C(c1cc(F)ccc1F)c1c[nH]c2nccc(-c3cccnc3)c12 [Compound P-0063]
≥ 5.00: Jak3

Cc1ccc(F)cc1C(=O)c1c[nH]c2ncc(-c3cccc(NS(C)(=O)=O)c3)cc12 [Compound P-0028]
≥ 5.00: Abl | Met

CS(=O)(=O)c1cccc(-c2cnc3[nH]cc(C(=O)c4cccc(O)c4F)c3c2)c1 [Compound P-0026, (2-Fluoro-3-hydroxy-phenyl)-[5-(3-methanesulfonylphenyl)1H-pyrrolo[2,3-b]pyridin-3-yl]-methanone]
not listed: Jak3 | Abl
≥ 5.00: all other assays above

CC(=O)Nc1cccc(-c2cnc3[nH]cc(C(=O)c4cc(O)ccc4F)c3c2)c1 [Compound P-0001]
not listed: Jak3
≥ 5.00: all other assays above

CS(=O)(=O)Nc1cccc(-c2cnc3[nH]cc(C(=O)c4cccc(O)c4F)c3c2)c1 [Compound P-0038, N-{3-[3-(2-Fluoro-3-hydroxy-benzoyl)-1H-pyrrolo[2,3-b]pyridin-5-yl]-phenyl}-methanesulfonamide]
not listed: Jak3 | Abl
≥ 5.00: all other assays above

COc1ccc(C(=O)c2c[nH]c3ncc(-c4cccc(/C=C/C(=O)O)c4)cc23)c(Cl)c1 [Compound P-0015]
≥ 5.00: Jnk1 | c-Raf-1 | Met | Jnk3
